Literature values as cited in US11717525B2, “Transdermal and/or topical delivery system comprising clobazam” (Alpha to Omega Pharmaceutical Consultants, Inc., priority 2015, dated 2023).

What was measured:
[1] = 25° C., practically insoluble
[2] = oral administration
[3] = lipophilic in nature

CN1C(=O)CC(=O)N(c2ccccc2)c2cc(Cl)ccc21 [Clobazam]
solubility in water [1]: 70 microgram/ml (μg/ml) | absorbed when taken orally [2]: 87% | Log P [3]: around 2.1
